According to patent US5523320A, “N-methyldeacetylcolchiceinamide derivatives” (Ohgen Research Laboratories, Ltd., priority 1993, dated 1996):
In brackets after ≈: the same amount, converted by molar mass. Several values for one entry are separate records, joined by “and”; a condition that tells them apart may be missing. Identical values can stand only once.

Assays:
[1] = tested on: mouse leukemic cells P388/S; assay: In vitro cancer cell proliferation inhibition (Trypan Blue living cell count, 2 days culture); format: cell-based; settings: three separate experiments
Experimental: (§1) Test example 1: In vitro cancer cell proliferation inhibiting text
(§2) Mouse leukemic cells p388/S and adriamycin-resistant mouse leukemic cells P388/ADR subculturally transplanted in the abdominal cavity of mice were taken out together with the asites therefrom, respectively, and after washing, suspended in RPMI 1640 media (each containing 10% fetal bovine serum and 10 μM 2-mercaptoethanol) to 2×10^5 cells/ml, respectively. 0.5 vol. % each of test solutions (solutions of the compound of the later-described in Example 1 in dimethylsulfoxide) were added to portions of each of these cell suspensions, respectively; and the mixtures were separately put into a 24-well culture plate and subjected to culture for 2 days in a 5% carbon dioxide culturing vessel. A 0.5% Trypan Blue solution was added to each of the cell culture broths in the same amount, and the 50% proliferation inhibitory concentration (IC50) of the compound of Example 1 was determined by counting the number of the cells not stained as living cells under a microscope.

[2] = tested on: adriamycin-resistant mouse leukemic cells P388/ADR; assay: as above; format: cell-based; settings: three separate experiments
Experimental: as §1, §2

CDF male mice = assay: Acute toxicity test (intraperitoneal, 10 days observation); format: in vivo, mouse; settings: i.p.
From the text: Test example 2: Acute toxicity test

cancer cells = settings: literature; cited from earlier work
[3] = literature / background; cited from earlier work

| Structure (SMILES) | IC50 ([1]; Mus musculus, 48 h, read-out: Cytotoxicity IC50 (50% proliferation inhibitory concentration)) [ng/mL] | Cytotoxicity IC50 (50% proliferation inhibitory concentration) ([1]; 2880 min) | IC50 ([2]; Mus musculus, P388/ADR, 48 h, read-out: Cytotoxicity IC50 (50% proliferation inhibitory concentration)) [ng/mL] | Cytotoxicity IC50 (50% proliferation inhibitory concentration) ([2]; 2880 min) | acute toxicity symptoms: diarrhea or constipation (CDF male mice; groups of high dose) | acute toxicity symptoms: lie of hair (CDF male mice; on and after one day after administration) | acute toxicity symptoms: walking problems and paralysis (CDF male mice; survival cases in the 47 mg/kg administration group) | body weight change (CDF male mice; up to 2 to 4 days after administration and thereafter) | pharmacological actions on cancer cells (cancer cells) | toxicity [3] |
| --- | --- | --- | --- | --- | --- | --- | --- | --- | --- | --- |
| CNc1ccc2c(cc1=O)C(NC(=O)C1COC(C)(C)O1)CCc1cc(OC)c(OC)c(OC)c1-2 (stereo not shown) [Example 1, N-(O,O-isopropylideneglyceroyl)-N-methyldeacetylcolchiceinamide] | 3.2 (≈ 0.0066 µM) | 4.2 ng/mL and 4.6 ng/mL | 9.2 (≈ 0.019 µM) | 11.0 ng/mL and 11.1 ng/mL | cases where diarrhea or constipation arose were observed | the lie of hair got worse | walking problems as in the right leg and paralysis of one side of the body | tended to decrease up to 2 to 4 days after administration, but thereafter increased gradually |  |  |
| COc1cc2c(c(OC)c1OC)-c1ccc(OC)c(=O)cc1C(NC(C)=O)CC2 (stereo not shown) [colchicine] |  |  |  |  |  |  |  |  | has pharmacological actions on cancer cells, gout, etc. | strong toxicity |
